Assay results published in the CheMixHub viscosity set.

Assay: xn = mol fraction of the nth substance listed

CCN(CC)CC(=O)Nc1c(C)cccc1C + Cc1ccc(C(C)C)c(O)c1
100 kPa, x2 = 0.5
Conditions | viscosity [mPa·s]
293.15 K | 177.3
298.15 K | 111.3
303.15 K | 73.71
308.15 K | 51.05
313.15 K | 36.76
318.15 K | 27.36
323.15 K | 20.98

CN1CCC[C@H]1c1cccnc1 + ClC(Cl)Cl
viscosity [mPa·s], 101.33 kPa
Conditions | 298.15 K | 308.15 K | 323.15 K
x1 = 0.1107 | 0.8162 | 0.7343 | 0.6076
x1 = 0.1213 | 0.8741 | 0.7473 | 0.6289
x1 = 0.2022 | 1.135 | 0.9654 | 0.8066
x1 = 0.219 | 1.197 | 0.9796 | 0.8071
x1 = 0.2456 | 1.275 | 1.082 | 0.8894
x1 = 0.2972 | 1.463 | 1.206 | 0.958
x1 = 0.3738 | 1.8 | 1.473 | 1.138
x1 = 0.4026 | 1.921 | 1.588 | 1.198
x1 = 0.4882 | 2.296 | 1.818 | 1.361
x1 = 0.5032 | 2.395 | 1.9 | 1.402
x1 = 0.6129 | 2.846 | 2.267 | 1.651
x1 = 0.623 | 2.964 | 2.301 | 1.663
x1 = 0.6823 | 3.103 | 2.409 | 1.756
x1 = 0.6974 | 3.196 | 2.471 | 1.768
x1 = 0.8059 | 3.563 | 2.756 | 1.912
x1 = 0.8931 | 3.704 | 2.959 | 2
x1 = 0.8962 | 3.741 | 2.974 | 2.002
